In patent publication US10172858B2, “Combination pharmaceutical compositions and uses thereof” (Intellikine LLC, priority 2011, dated 2019):
Read-outs that look alike come from different tables or passages of the source.

Tests used:
PC3 = PC3 tumor cell line proliferation assay; type: cell-based; conditions: Homo sapiens, PC-3; Table 2, in vitro IC50
Procedure: The assay is performed in a 96 well microtiter plate using Alamar Blue reduction. […] A compound disclosed herein is diluted in Tumor Cell Media and added in a 10 ul volume. […] A volume of 10 uL of Alamar Blue reagent is added to each well and plates are incubated for 3 hours at 37 C and 5% CO2. Alamar Blue fluoresce is read at 560Ex/590Em, and IC50 values are calculated using GraphPad Prism 5.

PI3K δ = PI3K δ (Homo sapiens (Human), UniProt O00329); assay: PI3K δ kinase assay; type: biochemical
PI3K α = PI3K α (Homo sapiens (Human), UniProt P42336); assay: PI3K α kinase assay; type: biochemical
mTORC = mTORC (Homo sapiens (Human), UniProt P42345); assay: mTORC in vitro IC50 (Table 2); type: biochemical
Chain of mTORC (P42345 1360-2549): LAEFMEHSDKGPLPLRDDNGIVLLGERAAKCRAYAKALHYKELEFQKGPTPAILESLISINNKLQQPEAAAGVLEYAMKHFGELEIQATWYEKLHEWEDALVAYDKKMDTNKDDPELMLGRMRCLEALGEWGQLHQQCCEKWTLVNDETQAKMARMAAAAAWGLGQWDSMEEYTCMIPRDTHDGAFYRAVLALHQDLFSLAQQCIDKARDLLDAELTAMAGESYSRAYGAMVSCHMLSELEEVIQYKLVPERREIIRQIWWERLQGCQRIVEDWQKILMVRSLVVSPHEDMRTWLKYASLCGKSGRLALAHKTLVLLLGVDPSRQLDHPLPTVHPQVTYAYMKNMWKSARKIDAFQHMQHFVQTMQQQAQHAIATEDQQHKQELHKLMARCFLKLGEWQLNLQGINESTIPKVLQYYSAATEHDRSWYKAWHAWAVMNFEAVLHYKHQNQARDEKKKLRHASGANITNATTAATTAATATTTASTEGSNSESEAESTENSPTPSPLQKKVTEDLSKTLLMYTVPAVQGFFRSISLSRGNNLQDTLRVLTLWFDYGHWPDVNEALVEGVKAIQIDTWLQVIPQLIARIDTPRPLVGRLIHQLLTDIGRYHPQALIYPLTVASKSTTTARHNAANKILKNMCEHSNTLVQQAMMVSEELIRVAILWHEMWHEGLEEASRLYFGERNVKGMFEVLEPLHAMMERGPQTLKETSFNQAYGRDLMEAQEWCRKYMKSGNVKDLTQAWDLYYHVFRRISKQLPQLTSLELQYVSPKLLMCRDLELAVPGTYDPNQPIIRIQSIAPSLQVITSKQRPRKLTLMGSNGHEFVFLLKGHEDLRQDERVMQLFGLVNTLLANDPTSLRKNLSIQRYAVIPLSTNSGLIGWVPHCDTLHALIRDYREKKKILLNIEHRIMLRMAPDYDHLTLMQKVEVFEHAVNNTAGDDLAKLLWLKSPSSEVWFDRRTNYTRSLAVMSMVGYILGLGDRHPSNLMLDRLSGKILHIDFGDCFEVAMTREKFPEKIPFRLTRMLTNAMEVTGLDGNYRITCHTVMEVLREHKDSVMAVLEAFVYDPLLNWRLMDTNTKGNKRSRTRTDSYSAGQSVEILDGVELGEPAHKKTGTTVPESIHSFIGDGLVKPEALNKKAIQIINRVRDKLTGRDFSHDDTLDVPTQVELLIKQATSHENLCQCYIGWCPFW
Procedure: The compounds described herein and any other mTor inhibitors known in the art can be tested against recombinant mTOR (Invitrogen) in an assay containing 50 mM HEPES, pH 7.5, 1 mM EGTA, 10 mM MgCl2, 2.5 mM, 0.01% Tween, 10 μM ATP (2.5 μCi of μ-32P-ATP), and 3 μg/mL BSA. Rat recombinant PHAS-1/4EBP1 (Calbiochem; 2 mg/mL) is used as a substrate. Reactions are terminated by spotting onto nitrocellulose, which is washed with 1M NaCl/1% phosphoric acid (approximately 6 times, 5-10 minutes each). Sheets are dried and the transferred radioactivity quantitated by phosphorimaging.
For instance, one can use Invitrogen's LanthaScreen™ Kinase assay to test the inhibitors of mTOR disclosed herein. This assay is a time resolved FRET platform that measures the phosphorylation of GFP labeled 4EBP1 by mTOR kinase. The kinase reaction is performed in a white 384 well microtitre plate. The total reaction volume is 20 ul per well and the reaction buffer composition is 50 mM HEPES pH7.5, 0.01% Polysorbate 20, 1 mM EGTA, 10 mM MnCl2, and 2 mM DTT. In the first step, each well receives 2 ul of test compound in 20% dimethylsulphoxide resulting in a 2% DMSO final concentration. Next, 8 ul of mTOR diluted in reaction buffer is added per well for a 60 ng/ml final concentration. To start the reaction, 10 ul of an ATP/GFP-4EBP1 mixture (diluted in reaction buffer) is added per well for a final concentration of 10 μM ATP and 0.5 μM GFP-4EBP1. The plate is sealed and incubated for 1 hour at room temperature. […] The plate is sealed, incubated for 1 hour at room temperature, and then read on a plate reader set up for LanthaScreen™ TR-FRET. Data is analyzed and IC50s are generated using GraphPad Prism 5.

PI3K β = PI3K β (Homo sapiens (Human), UniProt P42338); assay: PI3K β kinase assay; type: biochemical; conditions: Table 2
Chain of PI3K β (P42338 whole entry, species assumed): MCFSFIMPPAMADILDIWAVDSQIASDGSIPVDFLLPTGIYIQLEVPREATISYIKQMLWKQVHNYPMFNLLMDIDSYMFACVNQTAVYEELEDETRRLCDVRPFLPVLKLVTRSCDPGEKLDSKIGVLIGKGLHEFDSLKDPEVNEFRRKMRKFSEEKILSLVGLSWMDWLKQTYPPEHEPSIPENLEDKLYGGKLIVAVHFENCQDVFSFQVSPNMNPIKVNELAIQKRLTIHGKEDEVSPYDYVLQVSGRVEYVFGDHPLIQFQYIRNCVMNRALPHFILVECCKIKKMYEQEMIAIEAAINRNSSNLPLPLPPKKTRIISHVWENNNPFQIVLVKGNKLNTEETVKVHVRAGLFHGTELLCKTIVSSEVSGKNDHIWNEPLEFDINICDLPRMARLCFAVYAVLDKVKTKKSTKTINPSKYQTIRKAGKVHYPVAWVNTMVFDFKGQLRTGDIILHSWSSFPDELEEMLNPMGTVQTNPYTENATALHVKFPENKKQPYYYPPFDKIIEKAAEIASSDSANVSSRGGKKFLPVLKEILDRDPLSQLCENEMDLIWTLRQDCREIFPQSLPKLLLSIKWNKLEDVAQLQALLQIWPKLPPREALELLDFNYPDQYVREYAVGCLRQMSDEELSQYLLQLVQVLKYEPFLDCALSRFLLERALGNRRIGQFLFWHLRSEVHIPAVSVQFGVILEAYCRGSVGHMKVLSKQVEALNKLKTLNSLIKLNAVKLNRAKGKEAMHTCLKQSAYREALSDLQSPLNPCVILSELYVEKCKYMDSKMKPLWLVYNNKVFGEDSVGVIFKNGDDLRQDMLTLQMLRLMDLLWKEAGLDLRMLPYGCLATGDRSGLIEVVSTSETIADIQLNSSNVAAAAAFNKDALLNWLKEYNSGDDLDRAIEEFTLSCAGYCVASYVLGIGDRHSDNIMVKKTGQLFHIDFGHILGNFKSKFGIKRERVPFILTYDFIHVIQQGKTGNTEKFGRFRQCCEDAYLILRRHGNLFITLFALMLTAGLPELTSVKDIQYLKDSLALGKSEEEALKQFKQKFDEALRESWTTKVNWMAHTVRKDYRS
Chain of PI3K β (P27986 whole entry partner, species assumed): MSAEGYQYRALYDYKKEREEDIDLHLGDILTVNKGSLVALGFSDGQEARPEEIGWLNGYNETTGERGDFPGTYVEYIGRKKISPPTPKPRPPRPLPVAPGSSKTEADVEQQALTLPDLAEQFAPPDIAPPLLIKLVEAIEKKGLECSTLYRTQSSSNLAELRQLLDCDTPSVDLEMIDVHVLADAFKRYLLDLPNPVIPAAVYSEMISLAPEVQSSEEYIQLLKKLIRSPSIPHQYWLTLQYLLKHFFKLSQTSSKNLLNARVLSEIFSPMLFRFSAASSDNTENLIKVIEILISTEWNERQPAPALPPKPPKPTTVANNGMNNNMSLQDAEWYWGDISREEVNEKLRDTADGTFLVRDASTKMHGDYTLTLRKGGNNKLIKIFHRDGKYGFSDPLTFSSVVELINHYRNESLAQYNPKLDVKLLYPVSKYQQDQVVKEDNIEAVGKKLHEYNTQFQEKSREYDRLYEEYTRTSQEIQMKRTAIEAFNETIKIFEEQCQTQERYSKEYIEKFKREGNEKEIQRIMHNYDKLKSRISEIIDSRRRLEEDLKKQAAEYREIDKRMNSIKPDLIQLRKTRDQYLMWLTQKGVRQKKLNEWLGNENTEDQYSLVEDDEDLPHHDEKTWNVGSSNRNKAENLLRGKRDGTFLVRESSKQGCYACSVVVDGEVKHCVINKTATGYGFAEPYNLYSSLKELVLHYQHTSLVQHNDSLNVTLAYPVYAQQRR

PI3K γ = PI3K γ (Homo sapiens (Human), UniProt P48736); assay: PI3K γ kinase assay; type: biochemical

Chain of PI3K δ (O00329 whole entry, species assumed): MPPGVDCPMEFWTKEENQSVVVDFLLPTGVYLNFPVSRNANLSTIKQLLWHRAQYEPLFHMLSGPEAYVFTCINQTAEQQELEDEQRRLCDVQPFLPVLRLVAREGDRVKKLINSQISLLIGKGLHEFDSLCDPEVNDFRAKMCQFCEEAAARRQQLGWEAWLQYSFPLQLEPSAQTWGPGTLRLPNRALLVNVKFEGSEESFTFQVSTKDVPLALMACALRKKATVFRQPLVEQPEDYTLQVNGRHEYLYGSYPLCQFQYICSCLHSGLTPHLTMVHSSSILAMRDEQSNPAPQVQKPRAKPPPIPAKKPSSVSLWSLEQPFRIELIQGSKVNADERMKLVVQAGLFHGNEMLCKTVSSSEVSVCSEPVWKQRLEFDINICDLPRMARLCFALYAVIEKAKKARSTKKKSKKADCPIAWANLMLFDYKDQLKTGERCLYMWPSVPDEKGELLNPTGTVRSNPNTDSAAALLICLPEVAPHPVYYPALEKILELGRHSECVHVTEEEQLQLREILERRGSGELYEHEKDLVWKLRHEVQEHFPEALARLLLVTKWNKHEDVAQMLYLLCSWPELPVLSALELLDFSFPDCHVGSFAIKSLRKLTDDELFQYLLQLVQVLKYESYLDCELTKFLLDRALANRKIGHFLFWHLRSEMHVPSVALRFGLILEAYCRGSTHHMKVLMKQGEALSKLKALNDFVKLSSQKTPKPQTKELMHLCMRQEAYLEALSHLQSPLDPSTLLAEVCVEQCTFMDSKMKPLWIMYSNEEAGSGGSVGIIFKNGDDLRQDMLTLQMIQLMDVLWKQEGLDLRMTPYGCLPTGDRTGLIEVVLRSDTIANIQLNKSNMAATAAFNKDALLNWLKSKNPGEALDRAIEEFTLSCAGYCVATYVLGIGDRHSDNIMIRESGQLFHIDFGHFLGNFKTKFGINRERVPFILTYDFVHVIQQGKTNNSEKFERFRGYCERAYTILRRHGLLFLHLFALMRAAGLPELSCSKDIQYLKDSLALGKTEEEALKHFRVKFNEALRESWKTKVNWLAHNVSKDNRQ
Chain of PI3K δ (P27986 whole entry partner, species assumed): as the sequence (P27986 whole entry partner, species assumed) above

| SMILES | IC50 (PC3) | IC50 (PI3K δ; Table 2) | IC50 (PI3K α; Table 2) | IC50 (mTORC) | IC50 (PI3K β) | IC50 (PI3K α) | IC50 (PI3K γ; Table 2) | IC50 (PI3K γ) | IC50 (PI3K δ) |
| --- | --- | --- | --- | --- | --- | --- | --- | --- | --- |
| CCOC(=O)Cn1nc(-c2cc3cc(O)ccc3[nH]2)c2c(N)ncnc21 [Compound 28] | > 0.5 µM | > 0.5 µM | > 0.5 µM | < 0.5 µM | > 0.5 µM |  |  |  |  |
| CC(=O)N1CCC(n2nc(-c3cc4cc(O)ccc4[nH]3)c3c(N)ncnc32)CC1 [Compound 30] | > 0.5 µM | > 0.5 µM |  | < 0.025 µM | > 0.5 µM | > 0.5 µM |  |  |  |
| Nc1ncnc2c1c(-c1cc3cc(O)ccc3[nH]1)nn2C1CCN(C(=O)C2CC2)CC1 [Compound 31] | > 0.5 µM | < 0.5 µM |  | < 0.025 µM | > 0.5 µM | > 0.5 µM |  |  |  |
| Nc1ncnc2c1c(-c1cc3cccc(O)c3[nH]1)nn2C1CCCC1 [Compound 36] | < 0.1 µM | < 0.5 µM | > 0.5 µM | < 0.01 µM |  |  | < 0.1 µM |  |  |
| Nc1ncnc2c1c(-c1cc3cc(O)ccc3[nH]1)nn2Cc1cccnc1 [Compound 38] | > 0.5 µM | > 0.5 µM | > 0.5 µM | < 0.5 µM |  |  |  | > 0.5 µM |  |
| CC(C)n1nc(-c2cc3c(Cl)ccc(O)c3[nH]2)c2c(N)ncnc21 [Compound 39] | > 0.5 µM | > 0.5 µM | > 0.5 µM | < 0.01 µM |  |  | > 0.5 µM |  |  |
| COCCn1nc(-c2cc3cc(O)ccc3[nH]2)c2c(N)ncnc21 [Compound 40] | > 0.5 µM |  | > 0.5 µM | < 0.1 µM |  |  | > 0.5 µM |  | > 0.5 µM |
| Nc1ncnc2c1c(-c1cc3cc(O)ccc3[nH]1)nn2C1CCOCC1 [Compound 42] | > 0.5 µM | < 0.1 µM |  | < 0.005 µM | > 0.5 µM | > 0.5 µM |  |  |  |
| CNC(=O)CCn1nc(-c2cc3cc(O)ccc3[nH]2)c2c(N)ncnc21 [Compound 43] |  | > 0.5 µM | > 0.5 µM | > 0.5 µM | > 0.5 µM |  |  |  |  |
| Cc1nccn1CCn1nc(-c2cc3cc(O)ccc3[nH]2)c2c(N)ncnc21 [Compound 44] |  |  | > 0.5 µM | < 0.1 µM | > 0.5 µM |  |  |  | > 0.5 µM |
| Nc1ncnc2c1c(-c1cc3c(Cl)cccc3[nH]1)nn2C1CCOCC1 [Compound 48] |  | > 0.5 µM | > 0.5 µM | < 0.05 µM | > 0.5 µM |  | > 0.5 µM |  |  |
| Nc1ncnc2c1c(-c1cc3cc(O)ccc3[nH]1)nn2C1CC(N2CCOCC2)C1 (stereo not drawn) [Compound 49] |  | < 0.5 µM |  | < 0.01 µM | > 0.5 µM | > 0.5 µM | < 0.5 µM |  |  |
| Nc1ncnc2c1c(-c1cc3cc(O)ccc3[nH]1)nn2C1CC(=O)C1 [Compound 53] |  |  | > 0.5 µM | < 0.1 µM | > 0.5 µM |  | > 0.5 µM |  |  |
| Nc1ncnc2c1c(-c1cc3cc(O)ccc3[nH]1)nn2C1CC(O)C1 (stereo not drawn) [Compound 54] |  |  | > 0.5 µM | < 0.025 µM | > 0.5 µM |  | > 0.5 µM |  |  |
| CC(C)N1CCC(n2nc(-c3cc4cc(O)ccc4[nH]3)c3c(N)ncnc32)CC1 [Compound 55] |  |  | > 0.5 µM | < 0.5 µM | > 0.5 µM |  | > 0.5 µM |  |  |
| CC(C)N1CCC(n2nc(-c3cc4cc(O)cc(Cl)c4[nH]3)c3c(N)ncnc32)CC1 [Compound 56] |  |  | > 0.5 µM | > 0.5 µM | > 0.5 µM |  | > 0.5 µM |  |  |
| Nc1ncnc2c1c(-c1cc3cc(O)ccc3[nH]1)nn2C1CCC(N2CCOCC2)CC1 (stereo not drawn) [Compound 57] |  |  | > 0.5 µM | < 0.025 µM | > 0.5 µM |  | > 0.5 µM |  |  |
| CN1CCN(C2CCC(n3nc(-c4cc5cc(O)ccc5[nH]4)c4c(N)ncnc43)CC2)CC1 (stereo not drawn) [Compound 58] |  |  |  | > 0.5 µM | > 0.5 µM | > 0.5 µM | > 0.5 µM |  |  |
| COc1ccc2cc(-c3nn(C4CCOCC4)c4ncnc(N)c34)[nH]c2c1 [Compound 59] |  |  | > 0.5 µM | > 0.5 µM | > 0.5 µM |  | > 0.5 µM |  |  |
| Nc1ncnc2c1c(-c1cc3ccc(O)cc3[nH]1)nn2C1CCOCC1 [Compound 60] |  |  | > 0.5 µM | < 0.1 µM | > 0.5 µM |  | < 0.1 µM |  |  |
